Measured values: publication PMC6152084, “Synthesis of New Hydrazone Derivatives for MAO Enzymes Inhibitory Activity” (Molecules : A Journal of Synthetic Chemistry and Natural …, 2017)
Marks after values point to notes of the source that are not given here.

Tests used:
[1] = test system: Salmonella typhimurium TA98; experiment: Ames MPF genotoxicity test, TA98; format: cell-based; details: for mutagenicity classification against TA98: in the presence and absence of metabolic activation (S9)
Method: (§1) An Ames MPF assay was performed to investigate the genotoxicity of the compounds 2a and 2b.
(§2) The genotoxicity of the compounds was determined by Ames assay as previously described using the Ames MPF 98/100 mutagenicity test sample kit (Xenometrix AG, Allschwil, Switzerland). This test was performed with Salmonella typhimurium strains TA98 (frameshift mutations) and TA100 (base-pair substitutions). Compounds was prepared in six different concentrations (5, 2.5, 1.25, 0.625, 0.3125, 0.156 mg/mL) which was between […] and 5000 µg/mL according to the previous guidelines in DMSO. In order to detect mutagenic potential, test performed with and without Aroclor™-1254 induced male Sprague-Dawley rat liver microsomal enzyme (S9) mix (Xenometrix AG). While the positive control for TA 98 without S9 mix was 2-nitrofluorene (2 μg/mL), 1 μg/mL of 2-aminoanthracene was positive control with S9 against TA 98. For TA100, 4-nitroquinoline N-oxide (0.1 μg/mL) was positive control without S9 mix and 2.5 μg/mL of 2-aminoanthracene was positive control. 4% DMSO solution was the solvent control. At the end of the experiment, revertant bacteria decreased the pH of solution and indicator medium colour was changed to yellow. Yellow wells were counted as positive and compared with the negative control. Fold induction over the negative control and fold induction over the baseline were calculated. Fold induction over the negative control is the ratio of the mean number of positive wells for the dose concentration divided by the mean number of positive wells for the zero dose (negative) control. Fold induction over the baseline is the ratio of the mean number of positive wells for the dose concentration divided by zero dose baseline. The zero dose baseline is obtained by adding one standard deviation to the mean number of positive wells of the zero dose control. Mutagenity was determined according to the criteria from previous studies. For a baseline value ≤ 3, significant increases between 2 and 3-fold the baseline were classified as weak mutagen, increases ≥ 3-fold the baseline were classified as mutagen. For a baseline was > 3, significant increases between 1.5 and 2.5-fold the baseline were classified as weak mutagen, and increases ≥ 2.5-fold the baseline, were classified as mutagen. In principle, for a mutagenic compound, at least two adjacent doses with significant increase or a significant increase at the highest dose level should be observed. All doses were compared according to Student’s t-test at p < 0.05 as statistically.

hMAO-A [2] = molecular target: T1, hMAO-A (Homo sapiens, UniProt P21397); experiment: Enzyme kinetics (Lineweaver-Burk plots, tyramine substrate); format: biochemical; details: for type of inhibition of hMAO-A: Lineweaver-Burk plot
T1 construct: purchased Sigma-Aldrich (Steinheim, Germany)
T1 sequence (P21397 1-527): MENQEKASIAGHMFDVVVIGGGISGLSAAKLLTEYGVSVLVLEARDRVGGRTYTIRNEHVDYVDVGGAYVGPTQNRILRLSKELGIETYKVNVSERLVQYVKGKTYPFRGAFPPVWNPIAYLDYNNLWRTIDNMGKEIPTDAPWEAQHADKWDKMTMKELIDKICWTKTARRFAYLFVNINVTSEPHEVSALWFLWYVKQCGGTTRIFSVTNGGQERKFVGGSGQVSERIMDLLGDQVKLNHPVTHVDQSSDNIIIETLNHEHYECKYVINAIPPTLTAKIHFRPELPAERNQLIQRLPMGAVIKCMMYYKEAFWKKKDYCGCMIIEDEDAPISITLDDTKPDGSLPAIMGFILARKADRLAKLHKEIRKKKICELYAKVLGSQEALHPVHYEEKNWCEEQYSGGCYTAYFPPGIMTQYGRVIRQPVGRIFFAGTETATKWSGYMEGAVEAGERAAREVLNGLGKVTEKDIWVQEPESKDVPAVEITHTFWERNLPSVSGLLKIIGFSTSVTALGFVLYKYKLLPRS
Method: The mechanism of hMAO-A inhibition was investigated by enzyme kinetics, following a similar procedure to the MAO inhibition assay. The linear Lineweaver-Burk graphics were used to estimate the type of inhibition. […] In each case, the initial velocity measurements were gained at different substrate (tyramine) concentrations ranging from 20 μM to 0.625 μM. The Ki (intercept on the x-axis) values of compounds 2a and 2b were determined from the secondary plot of the Km/Vmax (slope) versus varying concentrations.
Based on the type of interaction with the enzyme, inhibitor binding can be classified as either reversible or irreversible. The type of inhibition can be determined by the Lineweaver-Burk plot as mixed-type, uncompetitive, competitive, or noncompetitive, which are the indicators of a reversible inhibitor [23]. It is known that in the uncompetitive type inhibition a graphic, including the parallel lines without any cross, is observed. If the lines cross neither the x- nor the y-axis at the same point the inhibition type is called mixed-type. Noncompetitive inhibition is seen if the plots intersect on the x-axis. There are different slopes and intercepts on the y-axis. On the other hand, competitive inhibition gives the opposite situation. This type of inhibition has plots with the same intercept on the y-axis but there are diverse slopes and intercepts on the x-axis, which are observed in Figure 2 and Figure 3.
The same materials were used as in the MAO inhibition assay. […] The solutions of inhibitor (20 μL/well) and enzyme were added to the flat black bottom 96-well micro test plate, and incubated at 37 °C for 30 min. After incubation period, the working solution, including various concentrations (20, 10, 5, 2.5, 1.25, and 0.625 μM) of tyramine (100 μL/well) was added. The increase of the fluorescence (Ex/Em = 535/587 nm) was recorded for 30 min. A parallel experiment was carried out without inhibitor. All processes were assayed in quadruplicate. The results were analyzed as Lineweaver-Burk plots using Microsoft Office Excel 2013. The Km/Vmax (slope) values of the Lineweaver-Burk plots were replotted versus the inhibitor concentration, and the Ki values were determined from the x-axis intercept as −Ki.

[3] = test system: Salmonella typhimurium TA100; experiment: Ames MPF genotoxicity test, TA100; format: cell-based; details: for mutagenicity classification against TA100: with/without metabolic activation (S9)
Method: as §1, §2

hMAO-A [4] = molecular target: T1, hMAO-A; experiment: MAO-A inhibition assay (in vitro fluorometric Amplex Red method); format: biochemical; details: for inhibition at 1000 µM: 10^−3 M; for inhibition at 100 µM: 10^−4 M; for inhibition at 10 µM: 10^−5 M; for inhibition at 1 µM: 10^−6 M; for inhibition at 0.1 µM: 10^−7 M; for inhibition at 0.01 µM: 10^−8 M; for inhibition at 0.001 µM: 10^−9 M; for inhibition against hMAO-A in the initial assay: first step, 10^−3 and 10^−4 M; for selectivity towards hMAO-A: versus hMAO-B

| Compound | Revertants Fold Increase (Over Baseline) ([1]; TA 98, S9+, 0.156 mg/mL) | Revertants Fold Increase (Over Baseline) ([1]; TA 98, S9+, 1.25 mg/mL) | Revertants Fold Increase (Over Baseline) ([1]; TA 98, S9+, 2.5 mg/mL) | Revertants Fold Increase (Over Baseline) ([1]; TA 98, S9+, 5 mg/mL) | Revertants Fold Increase (Over Baseline) ([1]; TA 98, S9−, 0.156 mg/mL) | Revertants Fold Increase (Over Baseline) ([1]; TA 98, S9−, 0.3125 mg/mL) | Revertants Fold Increase (Over Baseline) ([1]; TA 98, S9−, 0.625 mg/mL) | Revertants Fold Increase (Over Baseline) ([1]; TA 98, S9−, 1.25 mg/mL) | Revertants Fold Increase (Over Baseline) ([1]; TA 98, S9−, 2.5 mg/mL) | Revertants Fold Increase (Over Baseline) ([1]; TA 98, S9−, 5 mg/mL) | mutagenicity classification against TA98 [1] | Vmax value of the competitive inhibition (hMAO-A [2]) [nmol/min/mg protein] | type of inhibition of hMAO-A (hMAO-A [2]) | Revertants Fold Increase (Over Baseline) ([3]; TA 100, S9+, 0.156 mg/mL) | Revertants Fold Increase (Over Baseline) ([3]; TA 100, S9+, 0.3125 mg/mL) | Revertants Fold Increase (Over Baseline) ([3]; TA 100, S9+, 0.625 mg/mL) | Revertants Fold Increase (Over Baseline) ([3]; TA 100, S9+, 1.25 mg/mL) | Revertants Fold Increase (Over Baseline) ([3]; TA 100, S9+, 2.5 mg/mL) | Revertants Fold Increase (Over Baseline) ([3]; TA 100, S9+, 5 mg/mL) | Revertants Fold Increase (Over Baseline) ([3]; TA 100, S9−, 0.156 mg/mL) | also measured |
| --- | --- | --- | --- | --- | --- | --- | --- | --- | --- | --- | --- | --- | --- | --- | --- | --- | --- | --- | --- | --- | --- |
| CC1CCCCN1c1ccc(/C=N/Nc2ccccc2)cc1 (stereo not shown) [Compound 2a, 1-(4-(2-Methypiperidin-1-yl)benzylidene)-2-phenylhydrazine] | 0.92 | 0.75 | 0.75 | 1.17 | 0.42 | 0.08 * | 0.58 | 0.50 | 0.08 * | 0.17 * | non-mutagenic | 85.517 ± 2.332 | reversible and competitive | 0.99 | 0.69 | 0.91 | 0.95 | 0.39 | 0.82 | 0.44 | Revertants Fold Increase (Over Baseline) ([1]; TA 98, S9+, 0.3125 mg/mL): 0.83; Revertants Fold Increase (Over Baseline) ([1]; TA 98, S9+, 0.625 mg/mL): 0.58; Ki (hMAO-A [2]; secondary plot of Km/Vmax (slope) versus inhibitor concentration, read-out: Ki for the inhibition of hMAO-A): 188 nM; Revertants Fold Increase (Over Baseline) ([3]; TA 100, S9−, 0.3125 mg/mL): 0.63; Revertants Fold Increase (Over Baseline) ([3]; TA 100, S9−, 0.625 mg/mL): 0.24 *; Revertants Fold Increase (Over Baseline) ([3]; TA 100, S9−, 1.25 mg/mL): 0.19 *; Revertants Fold Increase (Over Baseline) ([3]; TA 100, S9−, 2.5 mg/mL): 0.05 *; Revertants Fold Increase (Over Baseline) ([3]; TA 100, S9−, 5 mg/mL): 0.00 *; Fold-inductions over baseline ([3]; TA100, absence and presence of S9, each concentration): less than 1.5; mutagenicity classification against TA100 [3]: not genotoxic; IC50 (hMAO-A [4]): 342 ± 15 nM; inhibition at 1000 µM (hMAO-A [4]): 88.2 ± 0.821%; inhibition at 100 µM (hMAO-A [4]): 84.29 ± 0.641%; inhibition at 10 µM (hMAO-A [4]): 75.1 ± 0.693%; inhibition at 1 µM (hMAO-A [4]): 50.8 ± 0.582%; inhibition at 0.1 µM (hMAO-A [4]): 34.7 ± 0.378%; inhibition at 0.01 µM (hMAO-A [4]): 30.5 ± 0.542%; inhibition at 0.001 µM (hMAO-A [4]): 25.5 ± 0.517%; inhibition against hMAO-A in the initial assay (hMAO-A [4]): more than 50%; selectivity towards hMAO-A (hMAO-A [4]): selective inhibition potency towards hMAO-A |
| CN1CCN(c2ccc(C=NNc3ccccc3)cc2)CC1 [Compound 2b, 1-(4-(4-Methylpiperazine-1-yl)benzylidene)-2-phenylhydrazine] | 0.85 | 0.37 | 0.37 | 0.12 | 1.24 * | 0.36 | 0.22 | 0.00 | 0.00 | 0.00 | not classified as a mutagen | 79.360 ± 5.704 | reversible and competitive | 1.46 * | 1.40 | 1.46 | 0.79 | 0.12 * | 0.00 * | 0.40 | Fold-inductions over baseline ([1]; TA98 without S9, all concentrations): ≤ 1.5; Revertants Fold Increase (Over Baseline) ([3]; TA 100, S9−, 0.3125 mg/mL): 0.17 *; Revertants Fold Increase (Over Baseline) ([3]; TA 100, S9−, 0.625 mg/mL): 0.06 *; Revertants Fold Increase (Over Baseline) ([3]; TA 100, S9−, 1.25 mg/mL): 0.03 *; Revertants Fold Increase (Over Baseline) ([3]; TA 100, S9−, 2.5 mg/mL): 0.00 *; Revertants Fold Increase (Over Baseline) ([3]; TA 100, S9−, 5 mg/mL): 0.00 *; Fold-inductions over baseline ([3]; TA100 with S9, each concentration): ≤ 1.5; mutagenicity classification against TA100 [3]: non-mutagenic; IC50 (hMAO-A [4]): 28 ± 1 nM; inhibition at 1000 µM (hMAO-A [4]): 93.53 ± 0.412%; inhibition at 100 µM (hMAO-A [4]): 88.86 ± 0.214%; inhibition at 10 µM (hMAO-A [4]): 80.42 ± 0.47%; inhibition at 1 µM (hMAO-A [4]): 66.22 ± 0.54%; inhibition at 0.1 µM (hMAO-A [4]): 48.2 ± 0.631%; inhibition at 0.01 µM (hMAO-A [4]): 45.3 ± 0.48%; inhibition at 0.001 µM (hMAO-A [4]): 38.15 ± 0.367%; inhibition against hMAO-A in the initial assay (hMAO-A [4]): more than 50%; fold more active than moclobemide against hMAO-A (hMAO-A [4]; ratio of IC50 values): 216 fold; selectivity towards hMAO-A (hMAO-A [4]): selective inhibition potency towards hMAO-A |
